In this test the test system is BDF1 mice, P388 leukemia ip, median survival T/C. Kind of test: NCI In Vivo Anticancer Drug Screen. Data for tumor model P388 Leukemia (intraperitoneal) in B6D2F1 (BDF1) mice. Conditions: endpoint: median survival time, higher = longer survival. The method in brief:
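Each value expresses how treatment altered survival: treated-mouse outcome over vehicle-mouse outcome, both groups bearing the transplanted tumour.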

The mark [1] stands for this setting: dose: 100.0 mg/kg/injection, schedule: Q04DX003 (ip), vehicle: saline with Tween-80.
Setting [2] is: dose: 6.25 mg/kg/injection, schedule: Q01DX009 (ip), vehicle: saline with Tween-80.
[3] abbreviates: dose: 100.0 mg/kg/injection, schedule: Q01DX009 (ip), vehicle: Klucel (hydroxypropylcellulose) (HPC).
The mark [4] stands for this setting: dose: 100.0 mg/kg/injection, schedule: Q04DX003 (ip), vehicle: Klucel (hydroxypropylcellulose) (HPC).
Where [5] appears, read: dose: 200.0 mg/kg/injection, schedule: Q01DX009 (ip), vehicle: Klucel (hydroxypropylcellulose) (HPC).
Setting [6] is: dose: 200.0 mg/kg/injection, schedule: Q04DX003 (ip), vehicle: Klucel (hydroxypropylcellulose) (HPC).
Where [7] appears, read: dose: 400.0 mg/kg/injection, schedule: Q01DX009 (ip), vehicle: Klucel (hydroxypropylcellulose) (HPC).
Setting [8] is: dose: 400.0 mg/kg/injection, schedule: Q04DX003 (ip), vehicle: Klucel (hydroxypropylcellulose) (HPC).
The mark [9] stands for this setting: dose: 50.0 mg/kg/injection, schedule: Q01DX009 (ip), vehicle: saline with Tween-80.

Values joined by “and” are separate entries in the source; they are usually repeats but may differ in a detail not shown here. Equal values may be shown once. Toxic doses and inconclusive results are not listed.

As for `CC1C(=O)OCC2=CCN3CCC(OC(=O)C(C)C1(C)O)C23` (stereo not given), the T/C was 100 % of control (dose: 10.0 mg/kg/injection, schedule: Q01DX010 (ip), vehicle: saline); 105 % of control (dose: 20.0 mg/kg/injection, schedule: Q01DX010 (ip), vehicle: saline); 122 % of control (dose: 25.0 mg/kg/injection, schedule: Q01DX010 (ip), vehicle: carboxymethylcellulose (CMC)); 150 % of control (dose: 40.0 mg/kg/injection, schedule: Q01DX010 (ip), vehicle: saline); 111 % of control (dose: 50.0 mg/kg/injection, schedule: Q01DX010 (ip), vehicle: carboxymethylcellulose (CMC)); 88 % of control (dose: 100.0 mg/kg/injection, schedule: Q01DX010 (ip), vehicle: carboxymethylcellulose (CMC)).

As for `CC1Cc2c(Cl)cc(C(=O)NC(Cc3ccccc3)C(=O)O)c(O)c2C(=O)O1` (stereo not given), the T/C (dose: 0.25 mg/kg/injection, schedule: Q01DX009 (ip), vehicle: saline) is 98 % of control; the T/C (dose: 0.5 mg/kg/injection, schedule: Q01DX009 (ip), vehicle: saline) was 116 % of control; the T/C (dose: 1.0 mg/kg/injection, schedule: Q01DX009 (ip), vehicle: saline) was 115 % of control.

As for `COc1ccc(/C=C2\CCCC3=C2N=C2SCC(=O)N2C3c2ccc(OC)cc2)cc1` (stereo not given), the T/C runs as follows: under setting [1], 90 % of control; (dose: 400.0 mg/kg/injection, schedule: Q04DX003 (ip), vehicle: saline with Tween-80) 90 % of control.

As for `CCOCCO`, the T/C was 103 % of control (dose: 5.0 mg/kg/injection, schedule: Q01DX009 (ip), vehicle: saline); 92 % of control (dose: 5.0 mg/kg/injection, schedule: Q04DX003 (ip), vehicle: saline); 88 % of control (dose: 10.0 mg/kg/injection, schedule: Q01DX009 (ip), vehicle: saline); 92 % of control (dose: 10.0 mg/kg/injection, schedule: Q04DX003 (ip), vehicle: saline); 88 % of control (dose: 20.0 mg/kg/injection, schedule: Q04DX003 (ip), vehicle: saline).

For the compound `CN(C)c1ccc(C(=C2C=CC(=[N+](C)C)C=C2)c2ccc(N(C)C)cc2)cc1`, the T/C (dose: 0.78 mg/kg/injection, schedule: Q01DX009 (ip), vehicle: saline) was 107 % of control; the T/C (dose: 1.56 mg/kg/injection, schedule: Q01DX009 (ip), vehicle: saline) is 121 % of control; the T/C (dose: 1.56 mg/kg/injection, schedule: Q04DX003 (ip), vehicle: saline) was 122 % of control; the T/C (dose: 3.12 mg/kg/injection, schedule: Q04DX003 (ip), vehicle: saline) is 86 % of control.

For `CN1C(c2ccc(Cl)cc2)OCC1(C)C` (stereo not given), the T/C reads like this: (dose: 50.0 mg/kg/injection, schedule: Q01DX001 (ip), vehicle: saline sonified) 100 % of control; (dose: 100.0 mg/kg/injection, schedule: Q01DX001 (ip), vehicle: saline sonified) 100 % of control; (dose: 200.0 mg/kg/injection, schedule: Q01DX001 (ip), vehicle: saline sonified) 100 % of control.

As to `CC[N+](CC)(CC)CC.N#C/C([SH2+])=C(/[SH2+])C#N.N#C/C([SH2+])=C(/[SH2+])C#N.[Fe+2]`, the T/C reads like this: (dose: 1.56 mg/kg/injection, schedule: Q01DX009 (ip), vehicle: saline with Tween-80) 105 % of control; (dose: 3.12 mg/kg/injection, schedule: Q01DX009 (ip), vehicle: saline with Tween-80) 110 % of control; (dose: 3.5 mg/kg/injection, schedule: Q01DX001 (ip), vehicle: saline with Tween-80) 100 % of control; under setting [2], 110 % of control; (dose: 7.0 mg/kg/injection, schedule: Q01DX001 (ip), vehicle: saline with Tween-80) 95 % of control; (dose: 9.2 mg/kg/injection, schedule: Q04DX003 (ip), vehicle: saline with Tween-80) 100 % of control. For the same compound, the T/C (dose: 14.0 mg/kg/injection, schedule: Q04DX003 (ip), vehicle: saline with Tween-80) is 95 % of control.

In the case of `CC1=CCC2C(=O)C=CC(=O)C2C1` (stereo not given), the T/C (dose: 0.57 mg/kg/injection, schedule: Q01DX009 (ip), vehicle: Klucel (hydroxypropylcellulose) (HPC)) was 120 % of control; the T/C (dose: 0.85 mg/kg/injection, schedule: Q01DX009 (ip), vehicle: Klucel (hydroxypropylcellulose) (HPC)) was 115 % of control; the T/C (dose: 2.0 mg/kg/injection, schedule: Q01DX009 (ip), vehicle: Klucel (hydroxypropylcellulose) (HPC)) was 118 % of control; the T/C (dose: 3.12 mg/kg/injection, schedule: Q04DX003 (ip), vehicle: Klucel (hydroxypropylcellulose) (HPC)) was 100 % of control; the T/C (dose: 4.12 mg/kg/injection, schedule: Q01DX009 (ip), vehicle: Klucel (hydroxypropylcellulose) (HPC)) is 109 % of control and 110 % of control; the T/C (dose: 5.0 mg/kg/injection, schedule: Q04DX003 (ip), vehicle: Klucel (hydroxypropylcellulose) (HPC)) was 104 % of control. The T/C was 95 % of control and 120 % of control (dose: 6.25 mg/kg/injection, schedule: Q01DX009 (ip), vehicle: Klucel (hydroxypropylcellulose) (HPC)); 109 % of control (dose: 6.25 mg/kg/injection, schedule: Q04DX003 (ip), vehicle: Klucel (hydroxypropylcellulose) (HPC)); 104 % of control and 115 % of control (dose: 9.37 mg/kg/injection, schedule: Q01DX009 (ip), vehicle: Klucel (hydroxypropylcellulose) (HPC)); 109 % of control (dose: 10.0 mg/kg/injection, schedule: Q04DX003 (ip), vehicle: Klucel (hydroxypropylcellulose) (HPC)); 90 % of control (dose: 12.5 mg/kg/injection, schedule: Q01DX009 (ip), vehicle: Klucel (hydroxypropylcellulose) (HPC)); 90 % of control (dose: 12.5 mg/kg/injection, schedule: Q04DX003 (ip), vehicle: Klucel (hydroxypropylcellulose) (HPC)). Further, where the note is “dose: 18.0 mg/kg/injection, schedule: Q01DX009 (ip), vehicle: Klucel (hydroxypropylcellulose) (HPC)”, the T/C was 113 % of control.

In the case of `NC(=S)N/N=C/c1ccc(N)cn1`, the T/C was 160 % of control (dose: 3.13 mg/kg/injection, schedule: Q01DX009 (ip), vehicle: saline with Tween-80); 172 % of control and 211 % of control under setting [2].

As for `C[C@]12CCC(=O)C=C1CC[C@@H]1[C@@H]2C(=O)C[C@@]2(C)[C@H]1CC[C@]2(O)C(=O)CO`, the T/C under setting [3] was 108 % of control; the T/C under setting [4] was 110 % of control; the T/C under setting [5] is 108 % of control; the T/C under setting [6] is 115 % of control; the T/C under setting [7] is 87 % of control; the T/C under setting [8] was 110 % of control.

Regarding `CC1(C)N=C(N)N=C(N)N1c1ccc(CCc2ccccc2)cc1`, the T/C by setting is: (dose: 22.0 mg/kg/injection, schedule: Q01DX009 (ip), vehicle: saline with Tween-80) 104 % of control; (dose: 33.0 mg/kg/injection, schedule: Q01DX009 (ip), vehicle: saline with Tween-80) 100 % of control; under setting [9], 112 % of control.

As to `COC(=O)c1ccc(C(=O)OC)c(=O)[nH]1`, the T/C under setting [3] was 100 % of control; the T/C under setting [4] was 104 % of control; the T/C under setting [5] was 95 % of control; the T/C under setting [6] is 104 % of control; the T/C under setting [7] is 91 % of control; the T/C under setting [8] was 104 % of control.

Take `CCOC(=O)c1cnc2c(cnn2CC)c1NN=C(C)C`: the T/C was 122 % of control (dose: 50.0 mg/kg/injection, schedule: Q04DX003 (ip), vehicle: saline) and 111 % of control (dose: 200.0 mg/kg/injection, schedule: Q04DX003 (ip), vehicle: saline).

In the case of `CC(=O)O.[Au].c1ccc([PH+](c2ccccc2)c2ccccc2)cc1`, the T/C under setting [1] was 110 % of control.

Take `CN(C)c1ccc(NC(=O)C(c2ccccc2)c2ccccc2)cc1`: the T/C is, setting by setting: (dose: 50.0 mg/kg/injection, schedule: Q01DX005 (ip), vehicle: saline) 86 % of control; (dose: 100.0 mg/kg/injection, schedule: Q01DX005 (ip), vehicle: saline) 90 % of control; (dose: 200.0 mg/kg/injection, schedule: Q01DX005 (ip), vehicle: saline) 109 % of control.

As to `NC(=O)C1(c2ccccc2)CCN(Cc2ccccc2)CC1`, the T/C was 96 % of control under setting [9]; 100 % of control (dose: 50.0 mg/kg/injection, schedule: Q04DX003 (ip), vehicle: saline with Tween-80); 111 % of control (dose: 100.0 mg/kg/injection, schedule: Q01DX009 (ip), vehicle: saline with Tween-80); 90 % of control under setting [1].

(Values after PubChem BioAssay AID328 (DTP/NCI, 2004).)
